Laboratory results reported in EP3283473B1, “GHRELIN O-ACYL TRANSFERASE INHIBITORS” (Eli Lilly and Company, priority 2015, dated 2016).

Target: T1, human GOAT (Homo sapiens, UniProt Q96T53)
T1 construct: His; made in house; host or cells: Sf9 insect cells (baculovirus, pAN51 vector); microsomal membrane preparation
T1 sequence (Q96T53 1-435): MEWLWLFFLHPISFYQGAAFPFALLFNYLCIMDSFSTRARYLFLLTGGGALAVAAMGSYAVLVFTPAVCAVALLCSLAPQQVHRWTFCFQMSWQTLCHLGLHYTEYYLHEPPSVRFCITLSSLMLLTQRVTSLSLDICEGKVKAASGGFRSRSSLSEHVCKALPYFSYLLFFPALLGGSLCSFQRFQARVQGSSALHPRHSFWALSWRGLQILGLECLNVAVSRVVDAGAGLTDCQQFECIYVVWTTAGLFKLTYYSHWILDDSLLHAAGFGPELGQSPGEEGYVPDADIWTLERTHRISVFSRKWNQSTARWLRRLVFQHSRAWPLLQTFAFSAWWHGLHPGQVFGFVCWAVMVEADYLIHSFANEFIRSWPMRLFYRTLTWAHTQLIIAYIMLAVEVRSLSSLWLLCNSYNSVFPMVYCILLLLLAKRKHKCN
Test: In vitro cell free human GOAT enzymatic assay
Format: biochemical
Settings: GOAT-His/sf9 membrane preparation
Method: Human GOAT gene (Accession number: NM_001100916) is subcloned to pAN51 baculoviral expression vector. Baculovirus stock is prepared following the Bac-to-Bac Protocol provided by the vendor, Invitrogen, California, USA. Five mililiters of human GOAT baculoviral stock are added to 500 mL Sf9 cells in HyQ SFX-Insect™ media (HyClone catalog number SH30278.02) at the density of 1 × 10^6 cells per milliliter in a 2 L Erlenmeyer flask. The flask with human GOAT gene infected Sf9 cells is put on a plate shaker at 120 rpm at 28 °C for 48 hours. After 48 hours incubation, cells are centrifuged at 1,000xg for 10 min at 4 °C. The cell pellets are collected and stored at -80 °C in a freezer until ready for further processing.
One gram cell pellets are suspended in 9 mL chilled homogenization buffer (50 mM Tris-HCl, 250 mM sucrose, adjusted to pH 7.5 and sterile filtered through 0.2 µm Millipore filter). The cell suspension is transferred to a Dounce glass homogenizer. Cell pellets are homogenized with 40 strokes on ice. The homogenate is centrifuged at 3,000 rpm in a Beckman swing bucket rotor at 4 °C for 10 min to remove unbroken cells. The supernatant is collected and centrifuged at 40,000 xg for 1 hour at 4 °C. The resulting membrane pellet is suspended in the homogenization buffer using a Dounce glass homogenizer and stored at -20 °C in the freezer for the assay. For long term storage of the human GOAT enzyme membrane preparation, the suspended membrane is stored in a -80 °C freezer.
Prepare test compounds in DMSO to make up a 0.2 mM stock solution. Serially dilute the stock solution in DMSO to obtain a ten-point dilution curve with final compound concentrations ranging from 10 µM to 0.5 nM in a 96-well round-bottom plate. Prepare enzyme and substrate solutions in assay buffer (0.02% TWEEN™-20 in 50 mM Tris, pH 7.5/250 mM sucrose/1 mg/mL BSA/10 mM EDTA). Add diluted compound (1 µL) to each well of row A to N of a corresponding low protein binding 384 well plate. Add human GOAT substrate mix (10 µL), consisting of human desacyl-ghrelin-biotin (CPC Scientific Inc., 6.0 µM final), octanoyl-coenzyme A (CoA) (Sigma, 60 µM final) and an AG specific antibody (WO 2006/091381)(1.0 µg/mL final), to the compounds. Add GOAT-His/sf9 enzyme preparation, that has been prepared in assay buffer (9 µL), to each well of the plate containing substrate and test compounds resulting in a final concentration of 0.01 µg/mL to initiate the reaction. Incubate the mixture for 1 hour at RT on a gently rotating oscillator. Add 4M guanidine hydrochloride (20 µL) to all wells, mix, and incubate for 3 hours to stop the reaction.
Prepare ELISA plates (STREPTAVIDIN SPECTRAPLATE™ 384, Perkin Elmer) by blocking with 2% Heat-Inactivated FBS in PBS (40 µL) (Invitrogen) blocking buffer for 3 hours. Aspirate the blocking buffer from ELISA plate and add blocking buffer (23 µL) to columns 1-24, rows A-N. Reserve rows O and P for the acylghrelin standard curve. Add the reaction mix (2 µL) to the ELISA plates. Prepare a 10 point standard curve (biotin-labeled octanoyl-ghrelin) by serial 2X dilution in blocking buffer containing 0.2M Guanidine hydrochloride starting at 2.5 pM. Incubate the reaction mixture or biotin-labeled AG standard in the ELISA plate overnight at 4 °C. The following day, wash the plate 3× with wash buffer (0.1% TWEEN™-20/PBS, 100 µL per well in each wash cycle). […] Read plates at 450 nm using an ENVISION® Multilabel plate reader. […]

Row | IC20 [nM] | Compound
1 | 55.7 | Cc1nc(C(F)(F)F)nc(N)c1CCC1CCN(C(=O)[C@H](C)NC(=O)c2nccnc2Cl)CC1 [Example 15, N-[(1S)-2-[4-[2-[4-Amino-6-methyl-2-(trifluoromethyl)pyrimidin-5-yl]ethyl]-1-piperidyl]-1-methyl-2-oxo-ethyl]-3-chloro-pyrazine-2-carboxamide]
2 | 615 | COC(=O)N[C@@H](C)C(=O)N1CCC(CCc2c(C)nc(C(F)(F)F)nc2N)CC1 [Example 20, Methyl N-[(1S)-2-[4-[2-[4-amino-6-methyl-2-(trifluoromethyl)pyrimidin-5-yl]ethyl]-1-pipaidyl]-1-methyl-2-oxo-ethyl]carbamate]
3 | 420 | COc1ccccc1C(=O)N[C@@H](C)C(=O)N1CCC(CCc2c(C)nc(C(F)(F)F)nc2N)CC1 [Example 17, N-[(1S)-2-[4-[2-[4-Amino-6-methyl-2-(trifluoromethyl)pyrimidin-5-yl]ethyl]-1-piperidyl]-1-methyl-2-oxo-ethyl]-2-methoxy-benzamide]
4 | 276 | Cc1nc(C(F)(F)F)nc(N)c1CCC1CCN(C(=O)[C@H](C)NC(=O)CO)CC1 [Example 18, N-[(1S)-2-[4-[2-[4-Amino-6-methyl-2-(trifluoromethyl)pyrimidin-5-yl]ethyl]-1-piperidyl]-1-methyl-2-oxo-ethyl]-2-hydroxy-acetamide]
